The target of experiment [1] is human cloned 5-HT6 receptors (Homo sapiens, UniProt P50406). The experiment can be described thus: 5-HT6R radioligand competition binding assays. In general terms: In a radioligand displacement assay an active substance lowers the binding of a labelled ligand.
The subject of another experiment is postmenopausal women. Particulars: 120 mg/day, but not 60 mg/day; cited from earlier work.

Like-named read-outs stand apart in the source and are kept apart here.

This is an account of results in paper PMC3401608 (Journal of Medicinal Chemistry, 2012).

human cloned 5-HT6 receptors, sequence (P50406 whole entry): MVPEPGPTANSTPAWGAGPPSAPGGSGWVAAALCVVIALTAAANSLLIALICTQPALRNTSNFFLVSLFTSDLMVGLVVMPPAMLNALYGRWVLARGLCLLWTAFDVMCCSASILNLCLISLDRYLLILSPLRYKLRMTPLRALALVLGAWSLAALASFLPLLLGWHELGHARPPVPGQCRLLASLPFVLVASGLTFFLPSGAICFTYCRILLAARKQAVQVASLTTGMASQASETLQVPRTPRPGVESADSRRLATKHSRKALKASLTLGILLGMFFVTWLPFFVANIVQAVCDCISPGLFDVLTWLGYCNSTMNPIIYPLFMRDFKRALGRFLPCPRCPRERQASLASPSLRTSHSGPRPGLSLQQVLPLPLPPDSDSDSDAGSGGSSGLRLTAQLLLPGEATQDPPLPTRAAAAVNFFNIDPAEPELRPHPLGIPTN

Usually Ki stands for the dissociation constant of the complex between target and ligand, obtained from inhibition or displacement. Consider `O=c1cc(N2CCOCC2)oc2c(-c3ccccc3)cccc12` [Compound 7], for which the Ki in experiment [1] (5-HT6R, Table 6, unit inferred) was above 10 µM.
As to `CC(NCCC(c1ccccc1)c1ccccc1)c1ccccc1` (stereo not drawn) [Compound 5], the Ki in experiment [1] was above 10 µM; in experiment [1] (5-HT6R, Table 6, unit inferred) it was above 10 µM.
With `O=C(c1ccc(OCCN2CCCCC2)cc1)c1c(-c2ccc(O)cc2)sc2cc(O)ccc12` [Compound 10, raloxifene], the “Risk of cognitive impairment” value in the experiment on postmenopausal women was “reduced risk of cognitive impairment”.
With `COc1ccccc1N1CCN(CCCCNC(=O)c2ccc3ccccc3c2)CC1` [Compound 9], the Ki in experiment [1] was above 10 µM; in experiment [1] (5-HT6R, Table 6, unit inferred), above 10 µM.
